In US20230210999A1, “TARGETED PROTEASE DEGRADATION (TED) PLATFORM” (EUBULUS BIOTHERAPEUTICS INC., priority 2020, published 2023):
Where two headings read alike, the source gives them in different places.

Legend:
Format in all cases: cell-based, human
PC-3 = experiment: Cell proliferation experiment, PC-3
Method in brief: (§1)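 Single-cell suspensions from log-phase cultures, passaged at least 2 generations, are seeded into 96-well plates and given compound in complete medium. Following 72 h, fluorescence with Alamar blue is recorded and fitted for IC50.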

MDA-MB-231 cells = experiment: Cell proliferation experiment, MDA-MB-231
Method in brief: as §1

Daudi cells = experiment: Cell proliferation experiment, Daudi; details: read-out: Inhibitory activity IC50 on Daudi
Method in brief: as §1

NCIH82 cells = experiment: Cell proliferation experiment, NCI-H82; details: read-out: Inhibitory activity IC50 on NCI-H82
Method in brief: as §1

MV4;11 cells = experiment: Cell proliferation experiment (Alamar blue, 72 h), MV4;11
Method in brief: as §1

[1] = Homo sapiens, PC-3, PC-3 cells, read-out: Inhibitory activity IC50 on PC-3
[2] = Homo sapiens, MDA-MB-231, MDA-MB-231 cells, read-out: Inhibitory activity IC50 on MDA-MB-231
[3] = Homo sapiens, Daudi, Daudi cells
[4] = Homo sapiens, NCI-H82, NCI-H82 cells
[5] = Homo sapiens, MV4-11, MV4;11 cells, read-out: Inhibitory activity IC50 on MV4;11
[6] = PC-3 cells, read-out: Inhibitory activity IC50 on PC-3

Row | Compound | IC50 (PC-3; [1]) [nM] | IC50 (MDA-MB-231 cells; [2]) [nM] | IC50 (Daudi cells; [3]) [nM] | IC50 (NCIH82 cells; [4]) [nM] | IC50 (MV4;11 cells; [5]) [nM] | other results
1 | CCNC(=O)C#Cc1ccc2c(c1)NC(=O)/C2=C(\Nc1ccc(CNCCOCCOCCOCCOCCC(=O)Nc2ccc3c(c2)CN(C2CCC(=O)NC2=O)C3=O)cc1)c1ccccc1 (centres unmarked) [UB-180957] | > 1000 | > 1000 | 100 to 1000 | 100 to 1000 | 10 to 100 | –
2 | CNC(=O)c1ccccc1Nc1nc(Nc2ccc(N3CCN(C(=O)NCCCCOCCCCNCC(=O)Nc4cccc5c4CN(C4CCC(=O)NC4=O)C5=O)CC3)cc2)ncc1Cl (centres unmarked) [UB-181048] | > 1000 | > 1000 | 10 to 100 | 100 to 1000 | < 10 | –
3 | CNC(=O)c1ccccc1Nc1nc(Nc2ccc(N3CCN(C(=O)NCCCCOCCCCNCC(=O)Nc4ccc5c(c4)CN(C4CCC(=O)NC4=O)C5=O)CC3)cc2)ncc1Cl (centres unmarked) [UB-181049] | 100 to 1000 | > 1000 | 10 to 100 | 10 to 100 | 10 to 100 | –
4 | CNC(=O)c1ccccc1Nc1nc(Nc2ccc(N3CCN(C(=O)NCCNCCC(=O)Nc4ccc5c(c4)CN(C4CCC(=O)NC4=O)C5=O)CC3)cc2)ncc1Cl (centres unmarked) [UB-181054] | > 1000 | > 1000 | 10 to 100 | 100 to 1000 | < 10 | –
5 | CNC(=O)c1ccccc1Nc1nc(Nc2ccc(N3CCN(C(=O)NCCCOCC(O)COCC#Cc4ccc5c(c4)CN(C4CCC(=O)NC4=O)C5=O)CC3)cc2)ncc1Cl (centres unmarked) [UB-181076] | > 1000 | > 1000 | 10 to 100 | 100 to 1000 | < 10 | –
6 | CNC(=O)c1ccccc1Nc1nc(Nc2ccc(N3CCN(C(=O)N[C@H]4CC[C@@H](NCCOCCC#Cc5cccc6c5CN(C5CCC(=O)NC5=O)C6=O)CC4)CC3)cc2)ncc1Cl (some centres unmarked) [UB-181078] | – | 100 to 1000 | – | 100 to 1000 | < 10 | IC50 (PC-3; [6]): 10 to 100 nM; IC50 (Daudi cells; Daudi cells): 10 to 100 nM
7 | CNC(=O)c1ccccc1Nc1nc(Nc2ccc(N3CCN(C(=O)N[C@H]4CC[C@@H](NCCOCCC#Cc5ccc6c(c5)CN(C5CCC(=O)NC5=O)C6=O)CC4)CC3)cc2)ncc1Cl (some centres unmarked) [UB-181080] | 10 to 100 | 100 to 1000 | 10 to 100 | – | < 10 | IC50 (NCIH82 cells; NCI-H82 cells): 100 to 1000 nM
8 | CNC(=O)c1ccccc1Nc1nc(Nc2ccc(N3CCN(C(=O)N[C@H]4CC[C@@H](NCCCC#Cc5cccc6c5CN(C5CCC(=O)NC5=O)C6=O)CC4)CC3)cc2)ncc1Cl (some centres unmarked) [UB-181100] | 10 to 100 | 100 to 1000 | 10 to 100 | 10 to 100 | < 10 | –
9 | CNC(=O)c1ccccc1Nc1nc(Nc2ccc(N3CCN(C(=O)N[C@H]4CC[C@@H](NCCCC#Cc5ccc6c(c5)CN(C5CCC(=O)NC5=O)C6=O)CC4)CC3)cc2)ncc1Cl (some centres unmarked) [UB-181101] | 100 to 1000 | 100 to 1000 | 10 to 100 | 10 to 100 | < 10 | –
10 | CNC(=O)c1ccccc1Nc1nc(Nc2ccc(N3CCN(C(=O)N[C@H]4CC[C@@H](NCCCCOCC(=O)Nc5cccc6c5CN(C5CCC(=O)NC5=O)C6=O)CC4)CC3)cc2)ncc1Cl (some centres unmarked) [UB-181102] | > 1000 | > 1000 | 100 to 1000 | 100 to 1000 | 10 to 100 | –
11 | CC[C@@H]1C(=O)N(C)c2cnc(Nc3ccc(C(=O)N[C@H]4CC[C@H](NCCOCCC#Cc5cccc6c5CN(C5CCC(=O)NC5=O)C6=O)CC4)cc3OC)nc2N1C1CCCC1 (some centres unmarked) [UB-181113] | – | – | – | – | – | IC50 (PC-3; Homo sapiens, PC-3, read-out: Inhibitory activity IC50 on PC-3): 10 to 100 nM; IC50 (MDA-MB-231 cells; Homo sapiens, MDA-MB-231, read-out: Inhibitory activity IC50 on MDA-MB-231): 10 to 100 nM; IC50 (Daudi cells; Homo sapiens, Daudi): 10 to 100 nM; IC50 (MV4;11 cells; Homo sapiens, MV4-11, read-out: Inhibitory activity IC50 on MV4;11): < 10 nM
12 | CC[C@@H]1C(=O)N(C)c2cnc(Nc3ccc(-c4cn([C@H]5CC[C@@H](N(CCOCCC#Cc6cccc7c6CN(C6CCC(=O)NC6=O)C7=O)C(=O)OCc6ccc(NC(=O)[C@H](CC(N)=O)NC(=O)[C@H](C)NC(=O)[C@H](C)NC(=O)CCCCCN7C(=O)C=CC7=O)cc6)CC5)nn4)cc3OC)nc2N1C1CCCC1 (some centres unmarked) [UB-181149] | 100 to 1000 | 100 to 1000 | 100 to 1000 | – | 100 to 1000 | –
13 | CC[C@@H]1C(=O)N(C)c2cnc(Nc3ccc(-c4cn([C@H]5CC[C@@H](NCCOCCC#Cc6cccc7c6CN(C6CCC(=O)NC6=O)C7=O)CC5)nn4)cc3)nc2N1C1CCCC1 (some centres unmarked) [UB-181154] | – | – | – | – | – | IC50 (PC-3; [6]): 10 to 100 nM; IC50 (MDA-MB-231 cells; MDA-MB-231 cells, read-out: Inhibitory activity IC50 on MDA-MB-231): 100 to 1000 nM; IC50 (Daudi cells; Daudi cells): 100 to 1000 nM; IC50 (MV4;11 cells; MV4;11 cells, read-out: Inhibitory activity IC50 on MV4;11): < 10 nM

Continued, in another order:

Row | IC50 (PC-3; [1]) [nM] | IC50 (MDA-MB-231 cells; [2]) [nM] | IC50 (Daudi cells; [3]) [nM] | IC50 (NCIH82 cells; [4]) [nM] | IC50 (MV4;11 cells; [5]) [nM] | Compound | other results
14 | 10 to 100 | 100 to 1000 | 10 to 100 | 10 to 100 | < 10 | CNC(=O)c1ccccc1Nc1nc(Nc2ccc(N3CCN(C(=O)N[C@H]4CC[C@@H](NCCC#Cc5ccc6c(c5)CN(C5CCC(=O)NC5=O)C6=O)CC4)CC3)cc2)ncc1Cl (some centres unmarked) [UB-181103] | –
15 | 10 to 100 | 10 to 100 | 100 to 1000 | – | < 10 | CC[C@@H]1C(=O)N(C)c2cnc(Nc3ccc(-c4cn([C@H]5CC[C@H](NCCOCCC#Cc6cccc7c6CN(C6CCC(=O)NC6=O)C7=O)CC5)nn4)cc3)nc2N1C1CCCC1 (some centres unmarked) [UB-181118] | –
16 | 100 to 1000 | 100 to 1000 | 100 to 1000 | – | 10 to 100 | CC[C@@H]1C(=O)N(C)c2cnc(Nc3ccc(C(=O)NC4CCN(CCOCCN(C)CC(=O)Nc5cccc6c5CN(C5CCC(=O)NC5=O)C6=O)CC4)cc3)nc2N1C1CCCC1 (some centres unmarked) [UB-181143] | –
17 | 10 to 100 | 10 to 100 | 10 to 100 | – | < 10 | CC[C@@H]1C(=O)N(C)c2cnc(Nc3ccc(C(=O)N[C@H]4CC[C@H](NCCOCCC#Cc5cccc6c5CN(C5CCC(=O)NC5=O)C6=O)CC4)cc3)nc2N1C1CCCC1 (some centres unmarked) [UB-181144] | –
18 | < 10 | < 10 | < 10 | – | < 10 | CC[C@@H]1C(=O)N(C)c2cnc(Nc3ccc(-c4cn([C@H]5CC[C@@H](NCCOCCC#Cc6cccc7c6CN(C6CCC(=O)NC6=O)C7=O)CC5)nn4)cc3OC)nc2N1Cc1ccc(Cl)s1 (some centres unmarked) [UB-181145] | –
19 | 10 to 100 | 10 to 100 | 10 to 100 | – | < 10 | CC[C@@H]1C(=O)N(C)c2cnc(Nc3ccc(C(=O)N[C@H]4CC[C@@H](NCCOCCC#Cc5cccc6c5CN([C@H]5CCC(=O)NC5=O)C6=O)CC4)cc3)nc2N1C1CCCC1 [UB-181170] | –
20 | > 1000 | > 1000 | > 1000 | – | 10 to 100 | CC[C@@H]1C(=O)N(C)c2cnc(Nc3ccc(C(=O)NC4CCN(CCOCCN(C)CC(=O)Nc5cccc6c5CN(C5CCC(=O)NC5=O)C6=O)CC4)nc3)nc2N1C1CCCC1 (some centres unmarked) [UB-181171] | –
21 | 10 to 100 | 10 to 100 | 10 to 100 | – | < 10 | CC[C@@H]1C(=O)N(C)c2cnc(Nc3ccc(C(=O)N[C@H]4CC[C@@H](N(C)CCOCCC#Cc5cccc6c5CN(C5CCC(=O)NC5=O)C6=O)CC4)cc3)nc2N1C1CCCC1 (some centres unmarked) [UB-181175] | –
22 | 10 to 100 | 10 to 100 | 10 to 100 | – | < 10 | CC[C@@H]1C(=O)N(C)c2cnc(Nc3ccc(C(=O)N[C@H]4CC[C@H](N(C)CCOCCC#Cc5cccc6c5CN(C5CCC(=O)NC5=O)C6=O)CC4)cc3)nc2N1C1CCCC1 (some centres unmarked) [UB-181176] | –
23 | < 10 | < 10 | 10 to 100 | – | < 10 | CC[C@@H]1C(=O)N(C)c2cnc(Nc3ccc(C(=O)N[C@H]4CC[C@@H](N(C)CCOCCC#Cc5cccc6c5CN(C5CCC(=O)NC5=O)C6=O)CC4)cc3OC)nc2N1C1CCCC1 (some centres unmarked) [UB-181177] | –
24 | 10 to 100 | 10 to 100 | < 10 | – | < 10 | CC[C@@H]1C(=O)N(C)c2cnc(Nc3ccc(C(=O)N[C@H]4CC[C@H](N(C)CCOCCC#Cc5cccc6c5CN(C5CCC(=O)NC5=O)C6=O)CC4)cc3OC)nc2N1C1CCCC1 (some centres unmarked) [UB-181178] | –
